Measured values reported in patent US20240208978A1, “IDH MUTANT INHIBITOR AND USE THEREOF” (WIGEN BIOMEDICINE TECHNOLOGY (SHANGHAI) CO., LTD., priority 2021, published 2024).

Key:
IDH1 R132C = target: T1, IDH1 R132C (Homo sapiens, UniProt O75874, R132C); experiment: Detection of 2-HG in supernatant of HT1080 cells carrying IDH1 R132C; format: cell-based; conditions: 72 h, LC-MS-MS
T1 construct: endogenous in cells; host or cells: HT1080
Description: (§1) U87MG cells overexpressing the mIDH1 R132H mutation or HT1080 cells carrying IDH1 R132C were seeded in a 48-well plate and a 96-well plate at 50,000 cells/well and 10,000 cells/well, respectively. After the cells were incubated overnight for adhesion, the supernatants were removed. The cell culture media containing serially diluted compounds were added, and the cells were incubated for 72 h. After 72 h, the culture media were collected and diluted 10-fold and 20-fold with water, respectively. Acetonitrile was added to extract the metabolites. The 2-HG content in the culture media was analyzed by LC-MS-MS. The percentage inhibition and IC50 of the compounds on 2-HG in the supernatant were calculated as compared with the control group.

mIDH1 R132H = target: T2, mIDH1 R132H (Homo sapiens, UniProt O75874, R132H); experiment: Detection of 2-HG in supernatant of U87-IDH1 R132H cells; format: cell-based; conditions: U-87 MG, 72 h, U87MG cells overexpressing mIDH1 R132H, LC-MS-MS; for inhibition at 0.001 µM: 1 nM compound, read-out: Inhibition rate on 2-HG in the supernatant of U87-IDH R132H cells, 1 nM; for inhibition at 0.01 µM: 10 nM compound, read-out: Inhibition rate on 2-HG in the supernatant of U87-IDH R132H cells, 10 nM; for inhibition at 0.1 µM: 100 nM compound, read-out: Inhibition rate on 2-HG in the supernatant of U87-IDH R132H cells, 100 nM
T2 construct: expressed in transfected cells; host or cells: U87MG
Description: as §1

[1] = Stability test of human liver microsomes; format: in vitro ADME; conditions: 1 μM compound, 500 μg/ml human liver microsomes, NADPH regeneration system, 37° C.; read-out: Liver microsomal stability T1/2, Human
Description: (§2) After the 1 μM compound was incubated with 500 μg/ml of human or mouse liver microsomes and a NADPH regeneration system at 37° C. for different times, respectively, LC-MS-MS was used to analyze the remaining amount of the compound and calculate T1/2.

[2] = Stability test of mouse liver microsomes; format: in vitro ADME; conditions: 1 μM compound, 500 μg/ml mouse liver microsomes, NADPH regeneration system, 37° C.; read-out: Liver microsomal stability T1/2, Mouse
Description: as §2

T1 sequence (O75874 whole entry R132C): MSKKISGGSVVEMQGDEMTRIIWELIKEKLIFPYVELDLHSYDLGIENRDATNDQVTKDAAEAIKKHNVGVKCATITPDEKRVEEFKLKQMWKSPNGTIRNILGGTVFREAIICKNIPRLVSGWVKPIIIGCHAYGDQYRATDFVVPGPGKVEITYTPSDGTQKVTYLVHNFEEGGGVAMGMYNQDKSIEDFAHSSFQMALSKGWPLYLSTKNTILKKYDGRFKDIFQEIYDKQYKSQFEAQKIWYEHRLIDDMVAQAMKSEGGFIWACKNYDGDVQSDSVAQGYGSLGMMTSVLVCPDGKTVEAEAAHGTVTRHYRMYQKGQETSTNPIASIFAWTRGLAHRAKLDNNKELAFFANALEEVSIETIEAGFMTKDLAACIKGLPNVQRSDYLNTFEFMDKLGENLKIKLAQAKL
T2 sequence (O75874 whole entry R132H): as the sequence (O75874 whole entry R132C) above, with C132H counted along it

Row | Compound | IC50 (IDH1 R132C) [nM] | inhibition at 0.001 µM (mIDH1 R132H) [%] | inhibition at 0.01 µM (mIDH1 R132H) [%] | inhibition at 0.1 µM (mIDH1 R132H) [%] | half-life at 1 μM [1] [min] | half-life at 1 μM [2] [min]
1 | C=CC(=O)N1CCN([C@@H](CC2CC2)c2ccc([C@H](C)Nc3ncc4[nH]c(=O)n(C5CC5)c4n3)cc2)CC1 [Compound 4-1] | 11.5 | – | – | – | – | –
2 | C=CC(=O)N1CCN([C@@H](CC2CC2)c2ccc([C@H](C)Nc3ncc4[nH]c(=O)n(C5CCC5)c4n3)cc2)CC1 [Compound 5-1] | 2.63 | – | – | – | – | –
3 | C=CC(=O)N1CCN(C(CC2CC2)c2ccc(C(C)Nc3ncc4[nH]c(=O)n(C5CCCC5)c4n3)cc2)CC1 (centres unmarked) [Compound 6-1] | 3.22 | – | – | – | 4.4 | 3.9
4 | C=CC(=O)N1CCN(C(CC23CC(C2)C3)c2ccc([C@H](C)Nc3ncc4[nH]c(=O)n(C5CCCC5)c4n3)cc2)CC1 (some centres unmarked) [Compound 36] | – | 30 to 60 | > 90 | > 90 | – | –
5 | C=CC(=O)N1CCN(C(CC2CC2)c2ccc(C3(Nc4ncc5[nH]c(=O)n(CC)c5n4)CC3)cc2)CC1 (centres unmarked) [Compound 39] | – | < 30 | 60 to 90 | > 90 | – | –
6 | C=CC(=O)N1CCN(C(CC2CC2)c2ccc(C3(Nc4ncc5[nH]c(=O)n(C(C)C)c5n4)CC3)cc2)CC1 (centres unmarked) [Compound 40] | – | < 30 | 60 to 90 | > 90 | – | –
7 | N#Cc1ccnc(N2C(=O)CC[C@H]2C(=O)N(c2cncc(F)c2)[C@H](C(=O)NC2CC(F)(F)C2)c2ccccc2Cl)c1 [Ivosidenib, ivosidenib, reference compound] | – | < 30 | < 30 | 60 to 90 | – | –
8 | C=CC(=O)N1CCN([C@@H](CC2CC2)c2ccc([C@H](C)Nc3ncc4c(n3)N(CC)C(=O)OC4)cc2)CC1 [LY-3410738, reference compound] | 1.9 | 30 to 60 | > 90 | > 90 | 1.8 | 1.6

Continued, values first:

Row | IC50 (IDH1 R132C) [nM] | inhibition at 0.001 µM (mIDH1 R132H) [%] | inhibition at 0.01 µM (mIDH1 R132H) [%] | inhibition at 0.1 µM (mIDH1 R132H) [%] | half-life at 1 μM [1] [min] | half-life at 1 μM [2] [min] | Compound
9 | 4.48 | 60 to 90 | > 90 | > 90 | – | – | C=CC(=O)N1CCN(C(CC2CC2)c2ccc([C@H](C)Nc3ncc4[nH]c(=O)n(CC)c4n3)cc2)CC1 (stereo partly drawn) [Compound 1, 2-(((1S)-1-(4-(1-(4-acryloylpiperazin-1-yl)-2-cyclopropylethyl)phenyl)ethyl)amino)-9-ethyl-7,9-dihydro-8H-purin-8-one]
10 | 2.24 | – | – | – | 11.3 | 4.4 | C=CC(=O)N1CCN([C@@H](CC2CC2)c2ccc([C@H](C)Nc3ncc4[nH]c(=O)n(CC)c4n3)cc2)CC1 [Compound 1-1]
11 | 1.22 | – | – | – | 5 | 4 | C=CC(=O)N1CCN([C@@H](CC2CC2)c2ccc([C@H](C)Nc3ncc4[nH]c(=O)n(C(C)C)c4n3)cc2)CC1 [Compound 3-1]
12 | 2.36 | – | – | – | – | – | C=CC(=O)N1CCN([C@H](CC2CC2)c2ccc([C@H](C)Nc3ncc4[nH]c(=O)n(C(C)C)c4n3)cc2)CC1 [Compound 3-2]
13 | 2.06 | 30 to 60 | > 90 | > 90 | – | – | C=CC(=O)N1CCN(C(CC2CC2)c2ccc([C@H](C)Nc3ncc4[nH]c(=O)n(C(C)C)c4n3)cc2)CC1 (some centres unmarked) [Compound 3]
14 | – | < 30 | 60 to 90 | 60 to 90 | – | – | C=CC(=O)N1CCN(C(CC2CC2)c2ccc([C@H](C)Nc3ncc4c(n3)n(CC)c(=O)n4C)cc2)CC1 (some centres unmarked) [Compound 37]
15 | – | < 30 | 60 to 90 | 60 to 90 | – | – | C=CC(=O)N1CCN(C(CC2CC2)c2ccc([C@H](C)Nc3ncc4c(n3)n(C(C)C)c(=O)n4C)cc2)CC1 (some centres unmarked) [Compound 38]
